According to patent publication US8163771B2, “11 β-HSD1 modulators” (Exelixis, Inc., priority 2008, dated 2012):

Molecular target: T1, recombinant human 11 β-HSD1 (Homo sapiens, UniProt P28845)
T1 construct: made in house; host or cells: E. coli
Experiment: 11 β-HSD1 SPA Assay (Scintillation Proximity Assay)
Format: biochemical
Outline: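 Scintillation proximity read-out of cortisol formed from 40 nM [3H]cortisone by purified recombinant human enzyme (30-100 nM, E. coli) with 1 mM NADPH, pH7.4, 2 hours at room temperature; beads with cortisol antibody and glycyrrhetinic acid stop the reaction, read next day. IC50 derived from inhibition normalised to background and maximal wells.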

T1 sequence (P28845 whole entry): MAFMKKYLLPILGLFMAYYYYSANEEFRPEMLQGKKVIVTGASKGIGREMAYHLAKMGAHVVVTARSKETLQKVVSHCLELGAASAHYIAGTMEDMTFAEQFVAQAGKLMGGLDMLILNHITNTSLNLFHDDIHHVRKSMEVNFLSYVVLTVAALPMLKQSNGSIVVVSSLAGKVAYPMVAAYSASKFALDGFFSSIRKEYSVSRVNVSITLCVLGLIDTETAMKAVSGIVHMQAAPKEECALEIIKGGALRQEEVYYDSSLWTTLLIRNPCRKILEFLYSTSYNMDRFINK

Compound	IC50 [nM]
CC(C)(Oc1cc(F)c(Cl)cc1Cl)C(=O)N[C@H]1C[C@H]2CC[C@@H](C1)N2c1ccc(C(=O)NCC(F)F)cn1 [Example 436, 6-(3-endo-{[2-(2,4-dichloro-5-fluorophenoxy)-2-methylpropanoyl]amino}-8-azabicyclo[3.2.1]oct-8-yl)-N-(2,2-difluoroethyl)pyridine-3-carboxamide]	< 200
C[C@H](NC(=O)c1ccc(N2C3CCC2CC(NC(=O)C(C)(C)Oc2ccc(F)c(Cl)c2Cl)C3)nc1)C(F)(F)F (stereo partly drawn) [Example 437, 6-(3-endo-{[2-(2,3-dichloro-4-fluorophenoxy)-2-methylpropanoyl]amino}-8-azabicyclo[3.2.1]oct-8-yl)-N-[(2S)-1,1,1-trifluoropropan-2-yl]pyridine-3-carboxamide]	< 200
CC(C)(O)CNC(=O)c1ccc(N2[C@@H]3CC[C@H]2C[C@@H](NC(=O)C(C)(C)Oc2ccc(Cl)cc2OC(F)(F)F)C3)nc1 [Example 438, 6-[3-endo-({2-[4-chloro-2-(trifluoromethoxy)phenoxy]-2-methylpropanoyl}amino)-8-azabicyclo[3.2.1]oct-8-yl]-N-(2-hydroxy-2-methylpropyl)pyridine-3-carboxamide]	< 200
C[C@H](NC(=O)c1ccc(N2C3CCC2CC(NC(=O)C(C)(C)Oc2ncc(F)cc2C(F)F)C3)nc1)C(F)(F)F (stereo partly drawn) [Example 439, 6-{3-endo-[(2-{[3-(difluoromethyl)-5-fluoropyridin-2-yl]oxy}-2-methylpropanoyl)amino]-8-azabicyclo[3.2.1]oct-8-yl}-N-[(2S)-1,1,1-trifluoropropan-2-yl]pyridine-3-carboxamide]	< 2000
CC(C)(Oc1ncc(F)cc1C(F)F)C(=O)N[C@H]1C[C@H]2CC[C@@H](C1)N2c1ccc(C(=O)NCC(F)F)cn1 [Example 440, N-(2,2-difluoroethyl)-6-{3-endo-[(2-{[3-(difluoromethyl)-5-fluoropyridin-2-yl]oxy}-2-methylpropanoyl)amino]-8-azabicyclo[3.2.1]oct-8-yl}pyridine-3-carboxamide]	< 200
CC(C)(Oc1ccc(F)c(Cl)c1Cl)C(=O)N[C@H]1C[C@H]2CC[C@@H](C1)N2c1ccc(C(=O)NCC(F)F)cn1 [Example 441, 6-(3-endo-{[2-(2,3-dichloro-4-fluorophenoxy)-2-methylpropanoyl]amino}-8-azabicyclo[3.2.1]oct-8-yl)-N-(2,2-difluoroethyl)pyridine-3-carboxamide]	< 200
CC(C)(Oc1cc(F)c(F)cc1Cl)C(=O)N[C@H]1C[C@H]2CC[C@@H](C1)N2c1ccc(C(=O)NCC(F)F)cn1 [Example 442, 6-(3-endo-{[2-(2-chloro-4,5-difluorophenoxy)-2-methylpropanoyl]amino}-8-azabicyclo[3.2.1]oct-8-yl)-N-(2,2-difluoroethyl)pyridine-3-carboxamide]	< 200
CC(C)(Oc1ccc(F)cc1F)C(=O)N[C@H]1C[C@H]2CC[C@@H](C1)N2c1ccc(C(=O)NCC(F)F)cn1 [Example 443, N-(2,2-difluoroethyl)-6-(3-endo-{[2-(2,4-difluorophenoxy)-2-methylpropanoyl]amino}-8-azabicyclo[3.2.1]oct-8-yl)pyridine-3-carboxamide]	< 200
CC(C)(Oc1cc(CC(=O)O)c(Cl)cc1Cl)C(=O)N[C@H]1C[C@H]2CC[C@@H](C1)N2c1ccc(C(=O)NCC(F)(F)F)cn1 [Example 444, [2,4-dichloro-5-({2-methyl-1-oxo-1-[(8-{5-[(2,2,2-trifluoroethyl)carbamoyl]pyridin-2-yl}-8-azabicyclo[3.2.1]oct-3-endo-yl)amino]propan-2-yl}oxy)phenyl]acetic acid]	< 200
CC(C)(Oc1cc(C(C)(C)C(=O)O)c(Cl)cc1Cl)C(=O)N[C@H]1C[C@H]2CC[C@@H](C1)N2c1ccc(C(=O)NCC(F)(F)F)cn1 [Example 445, 2-[2,4-dichloro-5-({2-methyl-1-oxo-1-[(8-{5-[(2,2,2-trifluoroethyl)carbamoyl]pyridin-2-yl}-8-azabicyclo[3.2.1]oct-3-endo-yl)amino]propan-2-yl}oxy)phenyl]-2-methylpropanoic acid]	< 200
CC(C)(Oc1cc(C(C)(C)C(N)=O)c(Cl)cc1Cl)C(=O)N[C@H]1C[C@H]2CC[C@@H](C1)N2c1ccc(C(=O)NCC(F)(F)F)cn1 [Example 446, 6-[3-endo-({2-[5-(1-amino-2-methyl-1-oxopropan-2-yl)-2,4-dichlorophenoxy]-2-methylpropanoyl}amino)-8-azabicyclo[3.2.1]oct-8-yl]-N-(2,2,2-trifluoroethyl)pyridine-3-carboxamide]	< 200
CC(C)(Oc1ccc(Cl)cc1F)C(=O)N[C@H]1C[C@H]2CC[C@@H](C1)N2c1ccc(C(=O)NCC(F)F)cn1 [Example 447, 6-(3-endo-{[2-(4-chloro-2-fluorophenoxy)-2-methylpropanoyl]amino}-8-azabicyclo[3.2.1]oct-8-yl)-N-(2,2-difluoroethyl)pyridine-3-carboxamide]	< 200
CC(C)(Oc1ccc(Cl)cc1OC(F)(F)F)C(=O)NC1CC2CCC(C1)N2c1ccc(C(=O)NCC(O)C(F)(F)F)cn1 (stereo not drawn) [Example 448, 6-[3-endo-({2-[4-chloro-2-(trifluoromethoxy)phenoxy]-2-methylpropanoyl}amino)-8-azabicyclo[3.2.1]oct-8-yl]-N-(3,3,3-trifluoro-2-hydroxypropyl)pyridine-3-carboxamide]	< 200
CC(C)(Oc1ccc(Cl)cc1C(F)F)C(=O)NC1CC2CCC(C1)N2c1ccc(C(=O)NCC(O)C(F)(F)F)cn1 (stereo not drawn) [Example 449, 6-[3-endo-({2-[4-chloro-2-(difluoromethyl)phenoxy]-2-methylpropanoyl}amino)-8-azabicyclo[3.2.1]oct-8-yl]-N-(3,3,3-trifluoro-2-hydroxypropyl)pyridine-3-carboxamide]	< 200
C[C@@H](NC(=O)c1ccc(N2C3CCC2CC(NC(=O)C(C)(C)Oc2cc(F)c(Cl)cc2Cl)C3)nc1)C(F)(F)F (stereo partly drawn) [Example 450, 6-(3-endo-{[2-(2,4-dichloro-5-fluorophenoxy)-2-methylpropanoyl]amino}-8-azabicyclo[3.2.1]oct-8-yl)-N-[(2R)-1,1,1-trifluoropropan-2-yl]pyridine-3-carboxamide]	< 200
C[C@@H](NC(=O)c1ccc(N2C3CCC2CC(NC(=O)C(C)(C)Oc2cc(F)c(F)cc2Cl)C3)nc1)C(F)(F)F (stereo partly drawn) [Example 451, 6-(3-endo-{[2-(2-chloro-4,5-difluorophenoxy)-2-methylpropanoyl]amino}-8-azabicyclo[3.2.1]oct-8-yl)-N-[(2R)-1,1,1-trifluoropropan-2-yl]pyridine-3-carboxamide]	< 200
C[C@@H](NC(=O)c1ccc(N2C3CCC2CC(NC(=O)C(C)(C)Oc2ccc(F)cc2Cl)C3)nc1)C(F)(F)F (stereo partly drawn) [Example 452, 6-(3-endo-{[2-(2-chloro-4-fluorophenoxy)-2-methylpropanoyl]amino}-8-azabicyclo[3.2.1]oct-8-yl)-N-[(2R)-1,1,1-trifluoropropan-2-yl]pyridine-3-carboxamide]	< 200
C[C@H](NC(=O)c1ccc(N2C3CCC2CC(NC(=O)C(C)(C)Oc2ccc(C(F)F)cc2Cl)C3)nc1)C(F)(F)F (stereo partly drawn) [Example 453, 6-[3-endo-({2-[2-chloro-4-(difluoromethyl)phenoxy]-2-methylpropanoyl}amino)-8-azabicyclo[3.2.1]oct-8-yl]-N-[(2S)-1,1,1-trifluoropropan-2-yl]pyridine-3-carboxamide]	< 200
CC(C)(Oc1ccc(Cl)cc1OC(F)(F)F)C(=O)NC1CC2CCC(C1)N2c1ccc(C(=O)N2CCC(O)C2)cn1 (stereo not drawn) [Example 454, 2-[4-chloro-2-(trifluoromethoxy)phenoxy]-n-(8-{5-[(3-hydroxypyrrolidin-1-yl)carbonyl]pyridin-2-yl}-8-azabicyclo[3.2.1]oct-3-endo-yl)-2-methylpropanamide]	< 200
CC(C)(Oc1ccc(Cl)cc1OC(F)(F)F)C(=O)NC1CC2CCC(C1)N2c1ccc(C(=O)N2CCC[C@H]2CO)cn1 (stereo partly drawn) [Example 455, 2-[4-chloro-2-(trifluoromethoxy)phenoxy]-n-[8-(5-{[(2s)-2-(hydroxymethyl)pyrrolidin-1-yl]carbonyl}pyridin-2-yl)-8-azabicyclo[3.2.1]oct-3-endo-yl]-2-methylpropanamide]	< 200
CC(C)(Oc1ccc(Cl)cc1Cl)C(=O)NC1CC2CCC(C1)N2c1ccc(C(=O)NC[C@H](O)C(F)(F)F)cn1 (stereo partly drawn) [Example 456, 6-(3-endo-{[2-(2,4-dichlorophenoxy)-2-methylpropanoyl]amino}-8-azabicyclo[3.2.1]oct-8-yl)-N-[(2S)-3,3,3-trifluoro-2-hydroxypropyl]pyridine-3-carboxamide]	< 200
CC(C)(Oc1ccc(F)cc1Cl)C(=O)NC1CC2CCC(C1)N2c1ccc(C(=O)NCC(O)C(F)(F)F)cn1 (stereo not drawn) [Example 457, 6-(3-endo-{[2-(2-chloro-4-fluorophenoxy)-2-methylpropanoyl]amino}-8-azabicyclo[3.2.1]oct-8-yl)-N-(3,3,3-trifluoro-2-hydroxypropyl)pyridine-3-carboxamide]	< 200
CC(C)(Oc1ccc(Cl)cc1C(F)(F)F)C(=O)NC1CC2CCC(C1)N2c1ccc(C(=O)NCC(O)C(F)(F)F)cn1 (stereo not drawn) [Example 458, 6-[3-endo-({2-[4-chloro-2-(trifluoromethyl)phenoxy]-2-methylpropanoyl}amino)-8-azabicyclo[3.2.1]oct-8-yl]-N-(3,3,3-trifluoro-2-hydroxypropyl)pyridine-3-carboxamide]	< 200
CC(C)(Oc1ccc(F)cc1C(F)(F)F)C(=O)NC1CC2CCC(C1)N2c1ccc(C(=O)NCC(O)C(F)(F)F)cn1 (stereo not drawn) [Example 459, 6-[3-endo-({2-[4-fluoro-2-(trifluoromethyl)phenoxy]-2-methylpropanoyl}amino)-8-azabicyclo[3.2.1]oct-8-yl]-N-(3,3,3-trifluoro-2-hydroxypropyl)pyridine-3-carboxamide]	< 200
